In ChEMBL document CHEMBL1135979, “Novel sigma receptor ligands. Part 2. SAR of spiro[[2]benzopyran-1,4'-piperidines] and spiro[[2]benzofuran-1,4'-piperidines] with carbon substituents in position 3” (J Med Chem, 2002) one finds Ki and Selectivity data, which are given here for 11 compounds.

The first experiment addresses Sigma-2 receptor (Rattus norvegicus). Briefly: Ability to displace [3H]ditolylguanidine in the presence of 100 nM (+)-pentazocine from Sigma opioid receptor type 2 of rat liver.
For the compound `OC1Cc2ccccc2C2(CCN(Cc3ccccc3)CC2)O1` (stereo not drawn), the Ki came out at 513 nM.

Another experiment is filed under the species Rattus norvegicus. Briefly: Ratio of binding affinity towards Sigma opioid receptor type 1 versus Sigma opioid receptor type 2.
Take `CNCCC1Cc2ccccc2C2(CCN(Cc3ccccc3)CC2)O1` (stereo not drawn): the Selectivity was found to be 29. Still for that read-out and setting: next, `CCOC(=O)C1OC2(CCN(Cc3ccccc3)CC2)c2ccccc21` (stereo not drawn): 796; `OC1Cc2ccccc2C2(CCN(Cc3ccccc3)CC2)O1` (stereo not drawn): 236. On the same count and under the same terms, next, `OCC1Cc2ccccc2C2(CCN(Cc3ccccc3)CC2)O1` (stereo not drawn): 292. On the same count and under the same terms, to `OCCC1Cc2ccccc2C2(CCN(Cc3ccccc3)CC2)O1` (stereo not drawn) belongs 668; to `O=CCC1Cc2ccccc2C2(CCN(Cc3ccccc3)CC2)O1` (stereo not drawn), 180. In the case of `CCOC(=O)CC1OC2(CCN(Cc3ccccc3)CC2)c2ccccc21` (stereo not drawn), the Selectivity amounted to 449. Turning to `CCOC(=O)CC1Cc2ccccc2C2(CCN(Cc3ccccc3)CC2)O1` (stereo not drawn), the Selectivity came out at 124. The same measure, in the same setting: next, `CCOC(=O)C1Cc2ccccc2C2(CCN(Cc3ccccc3)CC2)O1` (stereo not drawn): 1130. Turning to `N#CCC1OC2(CCN(Cc3ccccc3)CC2)c2ccccc21` (stereo not drawn), the Selectivity is 768. The same measure, in the same setting: next, `N#CCC1Cc2ccccc2C2(CCN(Cc3ccccc3)CC2)O1` (stereo not drawn): 295.

For a further experiment, the target named is Sigma non-opioid intracellular receptor 1 (Cavia porcellus). Briefly: Ability to displace [3H](+)-pentazocine from Sigma opioid receptor type 1 of guinea pig brain.
`OC1Cc2ccccc2C2(CCN(Cc3ccccc3)CC2)O1` (stereo not drawn) registered a Ki of 2.17 nM.

What is called Ki is the equilibrium dissociation constant of an inhibitor or competing ligand from its target.
